US20230013669A1, “Antibacterial Treatment Using a Cannabinoid and an Active Agent” (priority 2019, published 2023)
Where “and” joins values, the source holds several entries; their conditions need not be identical. Equal values may be shown once.

Tested on: Klebsiella pneumoniae ATCC 13883 (GN_003 / GN_004)
Test: Synergy of cannabidiol with cell-wall disrupting agent (CBD MIC in combination, FICI)
Format: cell-based
Procedure: The compounds were stored short term at 4° C.
Analysis was performed using Microsoft Excel.

[1] = CBD with Colistin, Klebsiella pneumoniae ATCC 700603
[2] = CBD with MCC_6442, Klebsiella pneumoniae ATCC 700603, listed as CBD

C=C(C)C1CCC(C)=CC1c1c(O)cc(CCCCC)cc1O (stereo not drawn) [Cannabidiol, 2-[3-methyl-6-(1-methylethenyl)-2-cyclohexen-1-yl]-5-pentyl-1,3-benzenediol]
FICI range (MIC table) (CBD with Cefotetan, Klebsiella pneumoniae ATCC 700603, listed as CBD): 1-1.5 and 0.5-1.25 | FICI (CBD with Ceftazidime at 4 μg/mL, Klebsiella pneumoniae ATCC 700603, listed as CBD): 1 | FICI (CBD with Ceftazidime at 8 μg/mL, Klebsiella pneumoniae ATCC 700603, listed as CBD): 1 | FICI (CBD with Ceftazidime at 16 μg/mL, Klebsiella pneumoniae ATCC 700603, listed as CBD): 1.001 and 1 | FICI (CBD with Ceftazidime at 32 μg/mL, Klebsiella pneumoniae ATCC 700603, listed as CBD): 1.002 and 1.001 | FICI (CBD with Ceftazidime at 64 μg/mL, Klebsiella pneumoniae ATCC 700603, listed as CBD): 0.00391 and 0.001957 | FICI (CBD with Ceftazidime at 128 μg/mL, Klebsiella pneumoniae ATCC 700603, listed as CBD): 0.007816 and 0.00391 | FICI range (MIC table) (CBD with Ceftazidime, Klebsiella pneumoniae ATCC 700603): 0-1 | FICI (CBD with Cefuroxime at 1 μg/mL, Klebsiella pneumoniae ATCC 700603): 1.016 | FICI (CBD with Cefuroxime at 2 μg/mL, Klebsiella pneumoniae ATCC 700603): 1.031 | FICI (CBD with Cefuroxime at 4 μg/mL, Klebsiella pneumoniae ATCC 700603): 1.0625 | FICI (CBD with Cefuroxime at 8 μg/mL, Klebsiella pneumoniae ATCC 700603): 1.125 | FICI (CBD with Cefuroxime at 16 μg/mL, Klebsiella pneumoniae ATCC 700603): 1.25 | FICI (CBD with Cefuroxime at 32 μg/mL, Klebsiella pneumoniae ATCC 700603): 0.5 | FICI (CBD with Colistin at 0.031 μg/mL, Klebsiella pneumoniae ATCC 700603): 1.03 | FICI (CBD with Colistin at 0.062 μg/mL, Klebsiella pneumoniae ATCC 700603): 1.06 | FICI (CBD with Colistin at 0.25 μg/mL, Klebsiella pneumoniae ATCC 700603): 1.25 | FICI (CBD with Colistin at 0.5 μg/mL, Klebsiella pneumoniae ATCC 700603): 0.5 | FICI (CBD with Colistin at 1 μg/mL, Klebsiella pneumoniae ATCC 700603): 1 | FICI range (MIC table) [1]: 0.5-1.25 | FICI range (Synergy table) [1]: 0.5-1.25 | FICI range (MIC table) [2]: 0.25-1.13 and 0.13-1.06 | FICI range (Synergy table) [2]: 0.25-0.5 and 0.13-0.25 | FICI (CBD with MCC_6442 at 0.25 μg/mL, Klebsiella pneumoniae ATCC 700603): 1.031 | FICI (CBD with MCC_6442 at 0.25 μg/mL, Klebsiella pneumoniae ATCC 700603, listed as CBD): 1.016 | FICI (CBD with MCC_6442 at 0.5 μg/mL, Klebsiella pneumoniae ATCC 700603, listed as CBD): 1.0625 and 1.031 | FICI (CBD with MCC_6442 at 1 μg/mL, Klebsiella pneumoniae ATCC 700603, listed as CBD): 1.125 and 1.0625 | FICI (CBD with MCC_6442 at 2 μg/mL, Klebsiella pneumoniae ATCC 700603, listed as CBD): 0.2539 and 0.1289 | FICI (CBD with MCC_6442 at 4 μg/mL, Klebsiella pneumoniae ATCC 700603, listed as CBD): 0.501 and 0.251 | FICI (CBD with Ticarcillin at 2 μg/mL, Klebsiella pneumoniae ATCC 700603): 1.002 | FICI (CBD with Ticarcillin at 4 μg/mL, Klebsiella pneumoniae ATCC 700603): 1.004 | FICI (CBD with Ticarcillin at 16 μg/mL, Klebsiella pneumoniae ATCC 700603): 1.016 | FICI (CBD with Ticarcillin at 32 μg/mL, Klebsiella pneumoniae ATCC 700603): 1.031 | FICI (CBD with Ticarcillin at 64 μg/mL, Klebsiella pneumoniae ATCC 700603): 1.0625 | FICI range (MIC table) (CBD with Ticarcillin, Klebsiella pneumoniae ATCC 700603): 1-1.06 | CBD MIC with Cefotetan (Cefotetan at 0.015 μg/mL, Klebsiella pneumoniae ATCC 700603): >256 µg/mL | CBD MIC with Cefotetan (Cefotetan at 0.031 μg/mL, Klebsiella pneumoniae ATCC 700603): >256 µg/mL | CBD MIC with Cefotetan (Cefotetan at 0.062 μg/mL, Klebsiella pneumoniae ATCC 700603): >256 µg/mL | CBD MIC with Cefotetan (Cefotetan at 0.25 μg/mL, Klebsiella pneumoniae ATCC 700603): >256 µg/mL | CBD MIC with Cefotetan (Cefotetan at 0.5 μg/mL, Klebsiella pneumoniae ATCC 700603): 0.001 µg/mL | CBD MIC with Ceftazidime (Ceftazidime at 0.015 μg/mL as headed in Table 64, Klebsiella pneumoniae ATCC 700603): >256 µg/mL | CBD MIC with Ceftazidime (Ceftazidime at 0.031 μg/mL as headed in Table 64, Klebsiella pneumoniae ATCC 700603): >256 µg/mL | CBD MIC with Ceftazidime (Ceftazidime at 0.062 μg/mL as headed in Table 64, Klebsiella pneumoniae ATCC 700603): >256 µg/mL | CBD MIC with Ceftazidime (Ceftazidime at 0.25 μg/mL as headed in Table 64, Klebsiella pneumoniae ATCC 700603): 0.001 µg/mL | CBD MIC with Ceftazidime (Ceftazidime at 0.5 μg/mL as headed in Table 64, Klebsiella pneumoniae ATCC 700603): 0.001 µg/mL | CBD MIC with Ceftazidime (Ceftazidime at 4 μg/mL (Table 66), Klebsiella pneumoniae ATCC 700603): >32 µg/mL | CBD MIC with Ceftazidime (Ceftazidime at 8 μg/mL (Table 66), Klebsiella pneumoniae ATCC 700603): >32 µg/mL | CBD MIC with Ceftazidime (Ceftazidime at 16 μg/mL (Table 66), Klebsiella pneumoniae ATCC 700603): >32 µg/mL | CBD MIC with Ceftazidime (Ceftazidime at 32 μg/mL (Table 66), Klebsiella pneumoniae ATCC 700603): >32 µg/mL | CBD MIC with Ceftazidime (Ceftazidime at 64 μg/mL (Table 66), Klebsiella pneumoniae ATCC 700603): 0.001 µg/mL | CBD MIC with Ceftazidime (Ceftazidime at 128 μg/mL (Table 66), Klebsiella pneumoniae ATCC 700603): 0.001 µg/mL | CBD MIC with Cefuroxime (Cefuroxime at 32 μg/mL, Klebsiella pneumoniae ATCC 700603): 0.001 µg/mL | CBD MIC with Colistin (Colistin at 0.5 μg/mL, Klebsiella pneumoniae ATCC 700603): 0.001 µg/mL | CBD MIC with Colistin (Colistin at 1 μg/mL, Klebsiella pneumoniae ATCC 700603): 0.001 µg/mL | activity of cannabidiol combined with octapeptin MCC_006442 (Example 4): effective | activity of cannabidiol in combination with octapeptin MCC_006442 (Example 7): effective | activity of cannabidiol combined with cefuroxime (Example 12): effective | activity of cannabidiol combined with colistin (Example 14): effective | activity of cannabidiol combined with octapeptin MCC_006442 (Example 15): effective | activity of cannabidiol combined with ceftazidime (Example 16): effective | activity of cannabidiol combined with cefotetan (Example 17): effective | activity of cannabidiol combined with aztreonam (Example 18): effective | activity of cannabidiol combined with octapeptin C4 (Example 21): effective | activity of cannabidiol in combination with Spero Potentiator SPR741 (Example 22): effective | activity of cannabidiol in combination with octapeptin FADDI-287 (Example 23): effective | activity of cannabidiol in combination with MCC_8980 (Example 24): effective | FICI range (Klebsiella pneumoniae ATCC 700603 (so in the source), CBD with FADDI-287, MIC table (Table 95)): 0.16-4 | FICI range (Klebsiella pneumoniae ATCC 700603 (so in the source), CBD with FADDI-287, Synergy table (Table 97)): 0.16-0.5 | FICI range (Klebsiella pneumoniae ATCC 700603 (so in the source), CBD with MCC_8980, MIC table (Table 99), listed as CBD): 0.31-1.13 and 0.38-1.13 | FICI range (Klebsiella pneumoniae ATCC 700603 (so in the source), CBD with MCC_8980, Synergy table (Table 101), listed as CBD): 0.31 and 0.38 | FICI range (Klebsiella pneumoniae ATCC 700603 (so in the source), CBD with Spero Potentiator SPR741, MIC table (Table 91), listed as CBD): 0.08-1.03 and 0.09-1.03 and 0.16-1.06 and 0.14-1.06 | FICI range (Klebsiella pneumoniae ATCC 700603 (so in the source), CBD with Spero Potentiator SPR741, Synergy table (Table 93), listed as CBD): 0.08-0.27 and 0.09-0.27 and 0.16-0.27 and 0.14-0.26 | CBD MIC with MCC_8980 (Klebsiella pneumoniae ATCC 700603 (so in the source), MCC_8980 at 16 μg/mL, listed as CBD): 32 µg/mL | CBD MIC with Spero Potentiator SPR741 (Klebsiella pneumoniae ATCC 700603 (so in the source), SPR741 at 8 μg/mL, listed as CBD): 4 µg/mL and 8 µg/mL | FICI (Klebsiella pneumoniae ATCC 700603 (so in the source), cannabidiol with FADDI-287 at 0.25 μg/mL, calculated using MIC of 256 μg/mL for cannabidiol): 0.2539
